Source: ChEMBL document CHEMBL3886309, “Spiro compounds useful as inhibitors of stearoyl-coenzyme A delta-9 desaturase” (2015)

Target: T1, Stearoyl-CoA desaturase (Homo sapiens, UniProt O00767)
T1 sequence (O00767 whole entry): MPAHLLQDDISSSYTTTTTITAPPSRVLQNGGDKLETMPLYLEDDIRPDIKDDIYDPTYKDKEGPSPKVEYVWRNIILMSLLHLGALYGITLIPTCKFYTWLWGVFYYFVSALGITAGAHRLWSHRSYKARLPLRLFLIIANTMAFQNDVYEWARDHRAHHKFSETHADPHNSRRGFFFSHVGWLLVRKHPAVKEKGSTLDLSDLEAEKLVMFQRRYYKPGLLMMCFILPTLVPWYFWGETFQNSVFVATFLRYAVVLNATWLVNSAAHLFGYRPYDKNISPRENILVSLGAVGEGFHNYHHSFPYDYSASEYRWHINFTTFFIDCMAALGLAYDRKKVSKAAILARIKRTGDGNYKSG
Assay: Enzyme Activity Assay: The potency of compounds of formula I against the stearoyl-CoA desaturase was determined by measuring the conversion of radiolabeled stearoyl-CoA to oleoyl-CoA using rat liver microsome or human SCD1 following previously published procedures with some modifications (Joshi, et al., J. Lipid Res., 18: 32-36 (1977); Talamo, et al., Anal. Biochem, 29: 300-304 (1969)). Liver microsome was prepared from male Wistar or Sprague Dawley rats on a high carbohydrate diet for 3 days (LabDiet #5803, Purina). The livers were homogenized (1:10 w/v) in a buffer containing 250 mM sucrose, 1 mM EDTA, 5 mM DTT and 50 mM Tris-HCl (pH 7.5). After a 100,000xg centrifugation for 60 min, the liver microsome pellet was suspended in a buffer containing 100 mM sodium phosphate, 20% glycerol, 2 mM DTT, and stored at -78° C. Human SCD1 desaturase system was reconstituted using human SCD1 from a baculovirus/Sf9 expression system, cytochrome B5 and cytochrome B5 reductase.
Type: microsomes

Compound	IC50 [nM]
O=C(O)Cn1nnc(-c2nnc(N3CCC4(CC3)CC(=O)c3c(Cl)cccc3O4)s2)n1	24
O=C(O)Cn1nnc(-c2cnc(N3CCC4(CC3)CC(=O)c3c(Cl)cccc3O4)s2)n1	12
O=C(O)Cn1nnc(-c2cc(N3CCC4(CC3)CC(=O)c3c(Cl)cccc3O4)no2)n1	17
